Laboratory results as given in patent publication US8754073B2, “Substituted piperazino-dihydrothienopyrimidines” (Boehringer Ingelheim International GmbH, priority 2007, dated 2014).

Target: PDE4B (Homo sapiens, UniProt Q07343)
Test: Scintillation Proximity Assay (SPA) of PDE4B enzyme activity ([H3]-cAMP cleavage)
Type: biochemical
Settings: test substance 1 μM
Summary of the method: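 SPA read-out: [H3]-cAMP incubated with PDE4B in assay buffer for 1 h at 30 °C, with and without test compound at 1 μM. Reaction stopped by adding yttrium silicate beads that bind the [H3]-AMP product; after 45 min settling, scintillation counted. Value is % inhibition at 1 μM.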

[1] = one-hour incubation with [H3]-cAMP at 30° C.
[2] = one-hour incubation of [H3]-cAMP with PDE4B enzyme at 30° C.

PDE4B, sequence (Q07343 whole entry, species assumed): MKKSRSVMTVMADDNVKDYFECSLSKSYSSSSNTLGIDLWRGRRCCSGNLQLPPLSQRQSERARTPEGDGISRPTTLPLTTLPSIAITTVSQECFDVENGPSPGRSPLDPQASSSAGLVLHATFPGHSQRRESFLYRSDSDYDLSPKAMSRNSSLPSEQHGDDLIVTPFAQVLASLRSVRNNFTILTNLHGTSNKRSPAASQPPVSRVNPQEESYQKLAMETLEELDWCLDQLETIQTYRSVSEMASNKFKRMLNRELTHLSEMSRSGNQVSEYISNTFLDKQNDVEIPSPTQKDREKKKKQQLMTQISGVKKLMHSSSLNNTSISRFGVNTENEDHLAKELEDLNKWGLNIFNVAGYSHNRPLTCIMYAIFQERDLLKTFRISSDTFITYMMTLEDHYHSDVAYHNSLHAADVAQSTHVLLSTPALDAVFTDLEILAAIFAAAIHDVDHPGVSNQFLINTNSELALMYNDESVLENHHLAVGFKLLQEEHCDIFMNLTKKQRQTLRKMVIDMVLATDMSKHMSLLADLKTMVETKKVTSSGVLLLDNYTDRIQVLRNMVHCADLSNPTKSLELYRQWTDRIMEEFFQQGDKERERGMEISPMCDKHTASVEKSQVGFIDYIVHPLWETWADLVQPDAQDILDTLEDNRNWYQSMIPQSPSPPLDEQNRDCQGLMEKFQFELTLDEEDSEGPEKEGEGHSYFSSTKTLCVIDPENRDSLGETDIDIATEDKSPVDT

inhibition at 1 µM [1]	inhibition at 1 µM [2]	SMILES
84%		NC1CC1Nc1nc(N2CCC(c3ccc(Cl)cc3)CC2)nc2c1[S+]([O-])CC2 (single isomer, unassigned) [Example 232, N-{2-[4-(4-Chlorophenyl)-Piperidin-1-Yl]-5-Oxo-6,7-Dihydro-5H-5λ^4-Thieno[3,2-d]Pyrimidin-4-Yl}-Cyclopropan-1,2-Diamine]
	95%	COc1ccc(C2CCN(c3nc4c(c(Nc5cccc(F)c5)n3)[S+]([O-])CC4)CC2)cc1 (stereo not shown) [Example 133]
	96%	N#CC1(c2ccccc2)CCN(c2nc3c(c(Nc4cccc(F)c4)n2)[S+]([O-])CC3)CC1 (stereo not shown) [Example 85]
	94%	[O-][S+]1CCc2nc(N3CCC(c4ccc(Br)cc4)CC3)nc(NC3CCOCC3)c21 (stereo not shown) [Example 93, {2-[4-(4-Bromophenyl)-Piperidin-1-Yl]-5-Oxo-6,7-Dihydro-5H-5λ^4-Thieno[3,2-d]Pyrimidine-4-Yl}-(Tetrahydropyran-4-Yl)-Amine]
77%		COC1CCN(c2nc3c(c(NC4CCOCC4)n2)[S+]([O-])CC3)CC1 (stereo not shown) [Example 170]
94%		CC(=O)N(C)CC1(c2ccccc2)CCN(c2nc3c(c(N[C@H]4CCC(=O)N(C)C4)n2)[S+]([O-])CC3)CC1 (stereo partly shown) [Example 274, N-methyl-N-{1-[4-(1-methyl-6-oxo-piperidin-3-ylamino)-5-oxo-6,7-dihydro-5H-5λ^4-thieno[3,2-d]pyrimidin-2-yl]-4-phenylpiperidin-4-ylmethyl}-acetamide]
	96%	[O-][S+]1CCc2nc(N3CCC(c4cccc(Cl)c4)CC3)nc(NC3(CO)CC3)c21 (stereo not shown) [Example 39]
	94%	CC(C)[C@H](CO)Nc1nc(N2CCC(c3ccc4ccccc4c3)CC2)nc2c1[S+]([O-])CC2 (stereo partly shown) [Example 158]
	83%	[O-][S+]1CCc2nc(N3CCC4(CC3)OCc3ccccc34)nc(Nc3cccc(F)c3)c21 (stereo not shown) [Example 140]
	95%	[O-][S+]1CCc2nc(N3CCC(c4noc5ccc(F)cc45)CC3)nc(Nc3cccc(F)c3)c21 (stereo not shown) [Example 137]
87%		[O-][S+]1CCc2nc(N3CCC(CO)(c4ccc(Cl)cc4)CC3)nc(NC3CCOCC3)c21 (stereo not shown) [Example 281]
96%		COCC(=O)NCC1(c2ccccc2)CCN(c2nc3c(c(N[C@H]4CCC(=O)N(C)C4)n2)[S+]([O-])CC3)CC1 (stereo partly shown) [Example 202, 2-methoxy-N-{1-[4-(1-methyl-6-oxopiperidin-3-ylamino)-5-oxo-6,7-dihydro-5H-5λ^4-thieno[3,2-d]pyrimidin-2-yl]-4-phenylpiperidin-4-ylmethyl}-acetamide]
	94%	[O-][S+]1CCc2nc(N3CCC(c4cc(Cl)cc(Cl)c4)CC3)nc(NC3(CO)CC3)c21 (stereo not shown) [Example 91, (1-{2-[4-(3,5-Dichlorophenyl)-Piperidin-1-Yl]-5-Oxo-6,7-Dihydro-5H-5λ^4-Thieno[3,2-d]Pyrimidin-4-Ylamino}-Cyclopropyl)-Methanol]
95%		[O-][S+]1CCc2nc(N3CCC(c4nc5cccnc5[nH]4)CC3)nc(NC3CCOCC3)c21 (stereo not shown) [Example 207]
95%		CC(C)(NC(=O)c1ccc(OC2CCN(c3nc4c(c(NC5CCOCC5)n3)[S+]([O-])CC4)CC2)cc1)c1ccncc1 (stereo not shown) [Example 236]
	94%	[O-][S+]1CCc2nc(N3CCC(c4nnc5ccccn45)CC3)nc(Nc3cccc(F)c3)c21 (stereo not shown) [Example 139]
	94%	COc1ccc(C2CCN(c3nc4c(c(NC5(CO)CC5)n3)[S+]([O-])CC4)CC2)cc1 (stereo not shown) [Example 101]
92%		Cc1nn(C)cc1CNC(=O)c1cccc(C2CCN(c3nc4c(c(NC5CCOCC5)n3)[S+]([O-])CC4)CC2)c1 (stereo not shown) [Example 259]
	93%	[O-][S+]1CCc2nc(N3CCC(c4ccc(F)cc4F)CC3)nc(NC3(CO)CC3)c21 (stereo not shown) [Example 89, (1-{2-[4-(2,4-Difluorophenyl)-Piperidin-1-Yl]-5-Oxo-6,7-Dihydro-5H-5λ^4-Thieno[3,2-d]Pyrimidin-4-Ylamino}-Cyclopropyl)-Methanol]
97%		CC(C)c1noc(C2CCN(c3nc4c(c(N[C@H]5CCC(=O)N(C)C5)n3)[S+]([O-])CC4)CC2)n1 (stereo partly shown) [Example 189]
	95%	COC(=O)c1cccc(C2CCN(c3nc4c(c(NC5(CO)CC5)n3)[S+]([O-])CC4)CC2)c1 (stereo not shown) [Example 104]
91%		[O-][S+]1CCc2nc(N3CCC(c4nnc(-c5ccccc5)o4)CC3)nc(NC3(CO)CC3)c21 (stereo not shown) [Example 318]
94%		Cc1nn(C)cc1C(C)NC(=O)c1ccc(C2CCN(c3nc4c(c(NC5CCOCC5)n3)[S+]([O-])CC4)CC2)cc1 (stereo not shown) [Example 218]
	95%	CN1C[C@@H](Nc2nc(N3CCC4(CC3)CN(S(C)(=O)=O)c3ccccc34)nc3c2[S+]([O-])CC3)CCC1=O (stereo partly shown) [Example 44]
	96%	[O-][S+]1CCc2nc(N3CCC(c4cc5ccccc5o4)CC3)nc(NC3CCOCC3)c21 (stereo not shown) [Example 126]

inhibition at 1 µM [1]	inhibition at 1 µM [2]	SMILES
92%		[O-][S+]1CCc2nc(N3CCC(c4nc(-c5ccccc5)no4)CC3)nc(NC3CCOCC3)c21 (stereo not shown) [Example 312]
	93%	[O-][S+]1CCc2nc(N3CCC(c4cccc(Cl)c4)CC3)nc(NC3CCOCC3)c21 (stereo not shown) [Example 69]
	92%	CC(C)[C@H](CO)Nc1nc(N2CCC(O)(c3cc(F)cc(F)c3)CC2)nc2c1[S+]([O-])CC2 (stereo partly shown) [Example 18]
91%		[O-][S+]1CCc2nc(N3CCC(c4nc(-c5ccccc5)no4)CC3)nc(NC3(CO)CC3)c21 (stereo not shown) [Example 311]
	94%	COC(=O)c1cccc(C2CCN(c3nc4c(c(N[C@@H](CO)C(C)C)n3)[S+]([O-])CC4)CC2)c1 (stereo partly shown) [Example 151]
	96%	COC(=O)c1cccc(C2CCN(c3nc4c(c(Nc5cccc(F)c5)n3)[S+]([O-])CC4)CC2)c1 (stereo not shown) [Example 135]
93%		N#CC1(c2ccc(F)cc2)CCN(c2nc3c(c(NC4(CO)CC4)n2)[S+]([O-])CC3)CC1 (stereo not shown) [Example 295]
	97%	CN1C[C@@H](Nc2nc(N3CCC(c4nc5ccccc5o4)CC3)nc3c2[S+]([O-])CC3)CCC1=O (stereo partly drawn) [Example 100, (S)-5-[2-(4-Benzoxazol-2-Yl-Piperidin-1-Yl)-5-Oxo-6,7-Dihydro-5H-5λ^4-Thieno[3,2-d]Pyrimidin-4-Ylamino]-1-Methylpiperidin-2-One]
	93%	COc1ccc(C2CCN(c3nc4c(c(N[C@@H](CO)C(C)C)n3)[S+]([O-])CC4)CC2)cc1 (stereo partly shown) [Example 148]
	97%	[O-][S+]1CCc2nc(N3CCC(c4nc5ccccc5o4)CC3)nc(NC3CCOCC3)c21 (stereo not shown) [Example 99, [2-(4-Benzoxazol-2-Yl-Piperidin-1-Yl)-5-Oxo-6,7-Dihydro-5H-5λ^4-Thieno[3,2-d]Pyrimidin-4-Yl]-(Tetrahydropyran-4-Yl)-Amine]
	96%	CC(C)[C@H](CO)Nc1nc(N2CCC(c3cc4ccccc4o3)CC2)nc2c1[S+]([O-])CC2 (stereo partly shown) [Example 157]
	95%	CN1C[C@@H](Nc2nc(N3CCC4(CC3)OC(=O)Nc3ccccc34)nc3c2[S+]([O-])CC3)CCC1=O (stereo partly shown) [Example 50]
90%		Cc1nn(C)cc1C(C)NC(=O)c1cccc(C2CCN(c3nc4c(c(NC5CCOCC5)n3)[S+]([O-])CC4)CC2)c1 (stereo not shown) [Example 251]
92%		[O-][S+]1CCc2nc(N3CCC(Oc4ccc5c(c4)OCO5)CC3)nc(NC3CCOCC3)c21 (stereo not shown) [Example 174]
	92%	CCc1[nH]c2ccc(F)cc2c1C1CCN(c2nc3c(c(NC4(CO)CC4)n2)[S+]([O-])CC3)CC1 (stereo not shown) [Example 37, (1-{2-[4-(2-Ethyl-5-Fluoro-1H-Indol-3-Yl)-Piperidin-1-Yl]-5-Oxo-6,7-Dihydro-5H-5λ^4-Thieno[3,2-d]Pyrimidin-4-Ylamino}-Cyclopropyl)-Methanol]
	95%	CN1C[C@@H](Nc2nc(N3CCC(c4c[nH]cn4)CC3)nc3c2[S+]([O-])CC3)CCC1=O (stereo partly shown) [Example 42]
	95%	[O-][S+]1CCc2nc(N3CCC(c4noc5cc(F)ccc45)CC3)nc(Nc3cccc(F)c3)c21 (stereo not shown) [Example 136]
	87%	[O-][S+]1CCc2nc(N3CCC(c4c[nH]cn4)CC3)nc(NC3(CO)CC3)c21 (stereo not shown) [Example 27]
89%		CC(C)(C)OC(=O)N[C@@H]1CC1Nc1nc(N2CCC(c3ccc(Cl)cc3)CC2)nc2c1[S+]([O-])CC2 (stereo partly shown) [Example 222, tert-butyl (2-{2-[4-(4-chlorophenyl)-piperidin-1-yl]-5-oxo-6,7-dihydro-5H-5λ^4-thieno[3,2-d]pyrimidin-4-ylamino}-cyclopropyl)-carbamidate]
88%		CN1C[C@@H](Nc2nc(N3CCC(C#N)(c4ccc(F)cc4)CC3)nc3c2[S+]([O-])CC3)CCC1=O (stereo partly shown) [Example 294]
83%		CS(=O)(=O)NCC1(c2ccccc2)CCN(c2nc3c(c(Nc4cccc(F)c4)n2)[S+]([O-])CC3)CC1 (stereo not shown) [Example 327]
94%		CN1C[C@@H](Nc2nc(N3CCC(c4cc[n+]([O-])cc4)CC3)nc3c2[S+]([O-])CC3)CCC1=O (stereo partly shown) [Example 196]
96%		CN1C[C@@H](Nc2nc(N3CCC(C)(c4nc5cc(F)ccc5o4)CC3)nc3c2[S+]([O-])CC3)CCC1=O (stereo partly shown) [Example 197, 5-{2-[4-(5-fluorobenzoxazol-2-yl)-4-methylpiperidin-1-yl]-5-oxo-6,7-dihydro-5H-5λ^4-thieno[3,2-d]pyrimidin-4-ylamino}-1-methylpiperidin-2-one]
	96%	[O-][S+]1CCc2nc(N3CCC(c4ccc5ccccc5c4)CC3)nc(NC3CCOCC3)c21 (stereo not shown) [Example 127]
